# In patent publication US20220306695A1, “COMPSTATIN ANALOGUES AND THEIR MEDICAL USES” (priority 2019, published 2022):
# Starred links: 1 amine or outer side, 2 acyl side, 3 side chain; linkers in the order of their positions; H or OH if unused. Positions of bridges follow the written chain, without caps; N, C: chain ends. Non-standard residues stand in square brackets, D forms with d. Residues, ends and D or L forms follow the SMILES beside them. Groups on a side chain read outwards from the residue. *: point of attachment. Trp(1-Me) = Cn1cc(C[C@H](N)C(=O)O)c2ccccc21; C18 diacid = O=C(O)CCCCCCCCCCCCCCCCC(=O)*; γGlu = O=C(O)[C@H](CCC(=O)[*:2])N[*:1]; AEEA = NCCOCCOCC(=O)O; Aoc = NCCCCCCCC(=O)O; Sar = CNCC(=O)O
# System: classical complement pathway
# Assay: In vitro haemolysis assay (inhibition of classical complement pathway)
# Assay type: cell-based, human
# Details: Table 3; human serum, sensitized sheep red blood cells; read-out: IC50[nM], in vitro analysis of inhibition of hemolysis
# Outline: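 Serially diluted compound (9 points) was preincubated 15 min at room temperature with diluted human serum, titrated per batch to give 70-90% maximal haemolysis, in Tris/casein buffer pH 7.4 with Mg2+/Ca2+. Antibody-sensitized sheep erythrocytes were then added for 30 min at 37° C, and the reaction was stopped with EDTA. Haemolysis was read at A405, with IC50 from 4PL fit.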
row,Compound,IC50 [nM]
1,CC[C@H](C)[C@@H]1NC(=O)[C@@H](NC(=O)[C@H](Cc2ccccc2)NC(=O)[C@H](CCC(=O)O)NC(=O)[C@H](CO)NC(C)=O)CSSC[C@@H](C(=O)N[C@H](C(=O)N[C@@H](CCC(=O)O)C(=O)NCC(=O)N[C@@H](CCC(=O)O)C(=O)NCCCCCCCC(=O)N[C@@H](CCCCNC(=O)CC[C@H](NC(=O)CNC(=O)CC[C@H](NC(=O)CCCCCCCCCCCCCCCCC(=O)O)C(=O)O)C(=O)O)C(N)=O)[C@@H](C)O)NC(=O)[C@H](CCCNC(=N)N)NC(=O)[C@H](Cc2c[nH]cn2)NC(=O)[C@H](CCC(=O)O)NC(=O)CNC(=O)[C@H](Cc2c[nH]c3ccccc23)NC(=O)[C@H](CC(=O)O)NC(=O)[C@H](CCC(N)=O)NC(=O)[C@H](Cc2cn(C)c3ccccc23)NC1=O [Compound 136] (Ac-SEFCI[Trp(1-Me)]QDWGEHRCTEGE[Aoc]K([γGlu-Gly-γGlu-C18 diacid])-NH2; disulfide 4-14),< 100
2,CC[C@H](C)[C@@H]1NC(=O)[C@@H](NC(=O)[C@H](Cc2ccccc2)NC(=O)[C@H](CCC(=O)O)NC(=O)[C@H](CO)NC(C)=O)CSSC[C@@H](C(=O)N[C@H](C(=O)N[C@@H](CCC(=O)O)C(=O)NCC(=O)N[C@@H](CCC(=O)O)C(=O)NCCCCCCCC(=O)N[C@@H](CCC(=O)O)C(=O)N[C@@H](CCCCNC(=O)CC[C@H](NC(=O)CNC(=O)CC[C@H](NC(=O)CCCCCCCCCCCCCCCCC(=O)O)C(=O)O)C(=O)O)C(N)=O)[C@@H](C)O)NC(=O)[C@H](CCCNC(=N)N)NC(=O)[C@H](Cc2c[nH]cn2)NC(=O)[C@H](CCC(=O)O)NC(=O)CNC(=O)[C@H](Cc2c[nH]c3ccccc23)NC(=O)[C@H](CC(=O)O)NC(=O)[C@H](CCC(N)=O)NC(=O)[C@H](Cc2cn(C)c3ccccc23)NC1=O [Compound 137] (Ac-SEFCI[Trp(1-Me)]QDWGEHRCTEGE[Aoc]EK([γGlu-Gly-γGlu-C18 diacid])-NH2; disulfide 4-14),< 100
3,CC[C@H](C)[C@@H]1NC(=O)[C@@H](NC(=O)[C@H](Cc2ccccc2)NC(=O)[C@H](CCC(=O)O)NC(=O)[C@H](CO)NC(C)=O)CSSC[C@@H](C(=O)N(C)CC(=O)N[C@@H](CCC(=O)O)C(=O)NCC(=O)N[C@@H](CCC(=O)O)C(=O)NCCOCCOCC(=O)N[C@@H](CCCCNC(=O)CC[C@H](NC(=O)CNC(=O)CC[C@H](NC(=O)CCCCCCCCCCCCCCCCC(=O)O)C(=O)O)C(=O)O)C(N)=O)NC(=O)[C@H](CCCNC(=N)N)NC(=O)[C@H](Cc2c[nH]cn2)NC(=O)[C@H](CCC(=O)O)NC(=O)CNC(=O)[C@H](Cc2c[nH]c3ccccc23)NC(=O)[C@H](CC(=O)O)NC(=O)[C@H](CCC(N)=O)NC(=O)[C@H](Cc2cn(C)c3ccccc23)NC1=O [Compound 138] (Ac-SEFCI[Trp(1-Me)]QDWGEHRC[Sar]EGE[AEEA]K([γGlu-Gly-γGlu-C18 diacid])-NH2; disulfide 4-14),< 100
4,CC[C@H](C)[C@@H]1NC(=O)[C@@H](NC(=O)[C@H](Cc2ccccc2)NC(=O)[C@H](CCC(=O)O)NC(=O)[C@H](CO)NC(C)=O)CSSC[C@@H](C(=O)N(C)CC(=O)N[C@@H](CCC(=O)O)C(=O)NCC(=O)N[C@@H](CCC(=O)O)C(=O)NCCOCCOCC(=O)NCCOCCOCC(=O)NCCOCCOCC(=O)N[C@@H](CCCCNC(=O)CC[C@H](NC(=O)CNC(=O)CC[C@H](NC(=O)CCCCCCCCCCCCCCCCC(=O)O)C(=O)O)C(=O)O)C(N)=O)NC(=O)[C@H](CCCNC(=N)N)NC(=O)[C@H](Cc2c[nH]cn2)NC(=O)[C@H](CCC(=O)O)NC(=O)CNC(=O)[C@H](Cc2c[nH]c3ccccc23)NC(=O)[C@H](CC(=O)O)NC(=O)[C@H](CCC(N)=O)NC(=O)[C@H](Cc2cn(C)c3ccccc23)NC1=O [Compound 143] (Ac-SEFCI[Trp(1-Me)]QDWGEHRC[Sar]EGE[AEEA][AEEA][AEEA]K([γGlu-Gly-γGlu-C18 diacid])-NH2; disulfide 4-14),< 100
